Laboratory results from ChEMBL document CHEMBL4507265 (2021).

Experiments:
[1] = system: Tyrosine-protein kinase ABL1 (Homo sapiens), P00519 [F317I]; details: Compound concentration 1000.0 nM
[2] = system: Tyrosine-protein kinase ABL1 (Homo sapiens), P00519 [T315I]; details: Compound concentration 1000.0 nM
[3] = target: RAC-alpha serine/threonine-protein kinase (Homo sapiens) (UniProt P31749); details: Compound concentration 1000.0 nM
[4] = target: RAC-gamma serine/threonine-protein kinase (Homo sapiens) (UniProt Q9Y243); details: Compound concentration 1000.0 nM
[5] = target: BMP-2-inducible protein kinase (Homo sapiens) (UniProt Q9NSY1); details: Compound concentration 1000.0 nM
[6] = target: Calcium/calmodulin-dependent protein kinase type II subunit alpha (Homo sapiens) (UniProt Q9UQM7); details: Compound concentration 1000.0 nM
[7] = target: Cyclin-dependent kinase 13 (Homo sapiens) (UniProt Q14004); details: Compound concentration 1000.0 nM
[8] = target: Serine/threonine-protein kinase Chk2 (Homo sapiens) (UniProt O96017); details: Compound concentration 1000.0 nM
[9] = target: Casein kinase I isoform gamma-1 (Homo sapiens) (UniProt Q9HCP0); details: Compound concentration 1000.0 nM
[10] = target: Serine/threonine-protein kinase DCLK1 (Homo sapiens) (UniProt O15075); details: Compound concentration 1000.0 nM
[11] = target: Serine/threonine-protein kinase DCLK3 (Homo sapiens) (UniProt Q9C098); details: Compound concentration 1000.0 nM
[12] = target: Epithelial discoidin domain-containing receptor 1 (Homo sapiens) (UniProt Q08345); details: Compound concentration 1000.0 nM
[13] = target: Ephrin type-A receptor 7 (Homo sapiens) (UniProt Q15375); details: Compound concentration 1000.0 nM
[14] = target: Ephrin type-B receptor 4 (Homo sapiens) (UniProt P54760); details: Compound concentration 1000.0 nM
[15] = target: Mitogen-activated protein kinase 6 (Homo sapiens) (UniProt Q16659); details: Compound concentration 1000.0 nM
[16] = target: Beta-adrenergic receptor kinase 1 (Homo sapiens) (UniProt P25098); details: Compound concentration 1000.0 nM
[17] = target: G protein-coupled receptor kinase 4 (Homo sapiens) (UniProt P32298); details: Compound concentration 1000.0 nM
[18] = target: Homeodomain-interacting protein kinase 3 (Homo sapiens) (UniProt Q9H422); details: Compound concentration 1000.0 nM
[19] = target: Mitogen-activated protein kinase kinase kinase kinase 1 (Homo sapiens) (UniProt Q92918); details: Compound concentration 1000.0 nM
[20] = system: Mast/stem cell growth factor receptor Kit (Homo sapiens), P10721 [A829P]; details: Compound concentration 1000.0 nM
[21] = system: Mast/stem cell growth factor receptor Kit (Homo sapiens), P10721 [D816V]; details: Compound concentration 1000.0 nM
[22] = target: Leucine-rich repeat serine/threonine-protein kinase 2 (Homo sapiens) (UniProt Q5S007); details: Compound concentration 1000.0 nM
[23] = system: Leucine-rich repeat serine/threonine-protein kinase 2 (Homo sapiens), Q5S007 [G2019S]; details: Compound concentration 1000.0 nM
[24] = target: Leukocyte tyrosine kinase receptor (Homo sapiens) (UniProt P29376); details: Compound concentration 1000.0 nM
[25] = target: MAP/microtubule affinity-regulating kinase 4 (Homo sapiens) (UniProt Q96L34); details: Compound concentration 1000.0 nM
[26] = target: MAP kinase-interacting serine/threonine-protein kinase 2 (Homo sapiens) (UniProt Q9HBH9); details: Compound concentration 1000.0 nM
[27] = target: Serine/threonine-protein kinase 38-like (Homo sapiens) (UniProt Q9Y2H1); details: Compound concentration 1000.0 nM
[28] = target: Phosphorylase b kinase gamma catalytic chain, skeletal muscle/heart isoform (Homo sapiens) (UniProt Q16816); details: Compound concentration 1000.0 nM
[29] = system: Phosphatidylinositol 4,5-bisphosphate 3-kinase catalytic subunit alpha isoform (Homo sapiens), P42336 [Q546K]; details: Compound concentration 1000.0 nM
[30] = target: Phosphatidylinositol 4,5-bisphosphate 3-kinase catalytic subunit beta isoform (Homo sapiens) (UniProt P42338); details: Compound concentration 1000.0 nM
[31] = target: Serine/threonine-protein kinase pim-2 (Homo sapiens) (UniProt Q9P1W9); details: Compound concentration 1000.0 nM
[32] = target: Membrane-associated tyrosine- and threonine-specific cdc2-inhibitory kinase (Homo sapiens) (UniProt Q99640); details: Compound concentration 1000.0 nM
[33] = target: SRSF protein kinase 2 (Homo sapiens) (UniProt P78362); details: Compound concentration 1000.0 nM
[34] = target: SRSF protein kinase 3 (Homo sapiens) (UniProt Q9UPE1); details: Compound concentration 1000.0 nM
[35] = target: Activated CDC42 kinase 1 (Homo sapiens) (UniProt Q07912); details: Compound concentration 1000.0 nM
[36] = target: Wee1-like protein kinase (Homo sapiens) (UniProt P30291); details: Compound concentration 1000.0 nM
[37] = target: Tyrosine-protein kinase Yes (Homo sapiens) (UniProt P07947); details: Compound concentration 1000.0 nM
[38] = target: T1, D(4) dopamine receptor (Homo sapiens) (UniProt P21917); details: Compound concentration 10.0 uM
T1 sequence (whole entry): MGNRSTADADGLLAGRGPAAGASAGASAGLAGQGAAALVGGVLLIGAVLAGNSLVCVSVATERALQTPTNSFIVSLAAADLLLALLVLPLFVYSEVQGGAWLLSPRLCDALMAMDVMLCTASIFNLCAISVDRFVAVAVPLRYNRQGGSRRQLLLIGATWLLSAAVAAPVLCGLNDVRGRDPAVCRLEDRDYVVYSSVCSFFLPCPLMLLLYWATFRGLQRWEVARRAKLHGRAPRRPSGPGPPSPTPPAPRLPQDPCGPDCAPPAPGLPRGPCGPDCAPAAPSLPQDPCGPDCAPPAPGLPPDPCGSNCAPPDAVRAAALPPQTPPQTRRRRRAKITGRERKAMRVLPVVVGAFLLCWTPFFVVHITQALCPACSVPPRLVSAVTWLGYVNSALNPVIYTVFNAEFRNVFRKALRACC

[39] = target: Kappa-type opioid receptor (Homo sapiens) (UniProt P41145); details: Compound concentration 10.0 uM

Sequence of Phosphorylase b kinase gamma catalytic chain, skeletal muscle/heart isoform (Homo sapiens) (Q16816 whole entry, looked up, canonical isoform): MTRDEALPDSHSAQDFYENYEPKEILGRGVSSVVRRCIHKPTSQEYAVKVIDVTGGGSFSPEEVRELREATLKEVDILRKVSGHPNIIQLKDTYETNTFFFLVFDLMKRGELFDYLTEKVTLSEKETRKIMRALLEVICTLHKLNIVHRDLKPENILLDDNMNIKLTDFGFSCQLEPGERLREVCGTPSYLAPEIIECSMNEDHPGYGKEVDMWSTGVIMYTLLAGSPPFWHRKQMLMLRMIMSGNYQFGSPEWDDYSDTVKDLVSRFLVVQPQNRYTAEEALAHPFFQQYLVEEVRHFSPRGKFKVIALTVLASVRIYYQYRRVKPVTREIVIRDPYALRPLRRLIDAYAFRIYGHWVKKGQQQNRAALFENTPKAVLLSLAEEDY
Sequence of MAP/microtubule affinity-regulating kinase 4 (Homo sapiens) (Q96L34 whole entry): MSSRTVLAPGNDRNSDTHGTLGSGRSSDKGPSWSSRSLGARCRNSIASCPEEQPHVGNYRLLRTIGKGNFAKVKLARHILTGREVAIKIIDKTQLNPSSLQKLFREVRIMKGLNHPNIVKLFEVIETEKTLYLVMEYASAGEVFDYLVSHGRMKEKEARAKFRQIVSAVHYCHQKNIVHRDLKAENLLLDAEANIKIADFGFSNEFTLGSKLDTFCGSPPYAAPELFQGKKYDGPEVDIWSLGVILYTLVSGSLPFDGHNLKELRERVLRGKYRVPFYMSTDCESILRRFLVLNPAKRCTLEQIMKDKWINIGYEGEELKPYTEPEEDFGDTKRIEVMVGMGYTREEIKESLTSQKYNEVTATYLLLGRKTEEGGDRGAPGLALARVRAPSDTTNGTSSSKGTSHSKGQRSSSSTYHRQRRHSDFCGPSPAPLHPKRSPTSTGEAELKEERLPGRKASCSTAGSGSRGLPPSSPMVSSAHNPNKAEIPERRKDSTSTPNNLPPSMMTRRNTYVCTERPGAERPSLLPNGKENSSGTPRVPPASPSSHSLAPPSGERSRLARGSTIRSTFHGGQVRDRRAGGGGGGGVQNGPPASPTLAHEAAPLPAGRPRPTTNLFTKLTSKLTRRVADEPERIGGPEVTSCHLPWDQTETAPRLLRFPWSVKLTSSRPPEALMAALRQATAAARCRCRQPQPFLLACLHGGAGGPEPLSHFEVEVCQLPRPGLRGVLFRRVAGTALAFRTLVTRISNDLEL
Sequence of Mast/stem cell growth factor receptor Kit (Homo sapiens), P10721 [A829P] (P10721 whole entry A829P): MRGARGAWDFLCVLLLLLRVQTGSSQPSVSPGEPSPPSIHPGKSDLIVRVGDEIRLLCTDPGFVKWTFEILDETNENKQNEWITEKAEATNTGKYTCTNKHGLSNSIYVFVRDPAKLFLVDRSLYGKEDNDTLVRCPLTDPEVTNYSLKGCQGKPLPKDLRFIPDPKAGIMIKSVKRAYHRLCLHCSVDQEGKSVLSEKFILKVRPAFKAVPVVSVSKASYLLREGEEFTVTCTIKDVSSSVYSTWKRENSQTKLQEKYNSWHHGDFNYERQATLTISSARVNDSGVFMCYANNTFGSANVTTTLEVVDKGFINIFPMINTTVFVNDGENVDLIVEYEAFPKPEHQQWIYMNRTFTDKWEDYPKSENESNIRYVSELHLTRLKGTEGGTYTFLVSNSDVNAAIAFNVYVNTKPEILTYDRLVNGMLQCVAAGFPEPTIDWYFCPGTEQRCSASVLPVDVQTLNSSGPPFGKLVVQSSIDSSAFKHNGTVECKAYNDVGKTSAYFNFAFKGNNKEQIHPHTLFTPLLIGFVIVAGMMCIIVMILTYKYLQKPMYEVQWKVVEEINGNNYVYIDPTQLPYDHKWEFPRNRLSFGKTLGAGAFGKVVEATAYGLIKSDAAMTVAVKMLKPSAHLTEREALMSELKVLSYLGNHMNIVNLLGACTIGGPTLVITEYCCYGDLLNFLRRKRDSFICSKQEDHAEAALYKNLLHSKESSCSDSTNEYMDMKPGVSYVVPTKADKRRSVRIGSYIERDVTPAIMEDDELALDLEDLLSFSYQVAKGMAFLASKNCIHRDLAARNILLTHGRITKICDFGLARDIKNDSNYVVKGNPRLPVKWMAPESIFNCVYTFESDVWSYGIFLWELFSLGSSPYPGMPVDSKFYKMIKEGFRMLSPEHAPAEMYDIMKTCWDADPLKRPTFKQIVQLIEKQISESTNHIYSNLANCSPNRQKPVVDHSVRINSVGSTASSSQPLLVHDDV
Sequence of Mast/stem cell growth factor receptor Kit (Homo sapiens), P10721 [D816V] (P10721 whole entry D816V): as the sequence (P10721 whole entry A829P) above, with D816V, P829A counted along it
Sequence of Mitogen-activated protein kinase 6 (Homo sapiens) (Q16659 whole entry): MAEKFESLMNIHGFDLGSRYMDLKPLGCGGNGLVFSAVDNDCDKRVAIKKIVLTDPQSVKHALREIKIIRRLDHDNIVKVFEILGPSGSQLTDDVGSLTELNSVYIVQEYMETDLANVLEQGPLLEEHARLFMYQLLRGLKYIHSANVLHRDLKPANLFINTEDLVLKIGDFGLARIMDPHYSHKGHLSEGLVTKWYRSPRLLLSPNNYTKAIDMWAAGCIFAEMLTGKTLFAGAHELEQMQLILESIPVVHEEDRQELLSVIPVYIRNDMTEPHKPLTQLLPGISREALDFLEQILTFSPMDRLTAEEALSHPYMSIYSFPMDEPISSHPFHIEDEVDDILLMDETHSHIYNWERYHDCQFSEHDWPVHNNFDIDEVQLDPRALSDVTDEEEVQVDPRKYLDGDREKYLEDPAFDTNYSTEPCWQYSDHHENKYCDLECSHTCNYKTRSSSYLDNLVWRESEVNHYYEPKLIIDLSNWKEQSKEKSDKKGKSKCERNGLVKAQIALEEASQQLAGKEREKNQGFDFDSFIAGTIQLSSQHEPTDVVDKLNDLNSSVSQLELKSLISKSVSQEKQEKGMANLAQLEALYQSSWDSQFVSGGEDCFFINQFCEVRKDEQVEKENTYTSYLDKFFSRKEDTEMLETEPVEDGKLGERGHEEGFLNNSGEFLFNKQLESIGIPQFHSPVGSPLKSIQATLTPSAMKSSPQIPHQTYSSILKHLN
Sequence of SRSF protein kinase 3 (Homo sapiens) (Q9UPE1 whole entry): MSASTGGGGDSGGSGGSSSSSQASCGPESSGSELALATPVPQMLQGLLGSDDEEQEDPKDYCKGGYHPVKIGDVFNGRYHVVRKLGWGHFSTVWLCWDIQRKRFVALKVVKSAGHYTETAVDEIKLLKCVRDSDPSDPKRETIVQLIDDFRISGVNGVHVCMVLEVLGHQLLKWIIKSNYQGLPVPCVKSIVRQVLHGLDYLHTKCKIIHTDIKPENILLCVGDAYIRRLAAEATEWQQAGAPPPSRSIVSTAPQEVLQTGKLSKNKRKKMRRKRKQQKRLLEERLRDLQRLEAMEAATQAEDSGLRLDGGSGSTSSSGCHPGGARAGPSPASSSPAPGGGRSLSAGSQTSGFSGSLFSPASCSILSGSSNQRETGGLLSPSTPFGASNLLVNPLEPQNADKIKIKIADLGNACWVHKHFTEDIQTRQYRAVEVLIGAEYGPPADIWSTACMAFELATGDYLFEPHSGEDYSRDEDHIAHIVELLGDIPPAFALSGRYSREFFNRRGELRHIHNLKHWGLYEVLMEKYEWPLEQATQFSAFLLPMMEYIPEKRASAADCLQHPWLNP
Sequence of Serine/threonine-protein kinase Chk2 (Homo sapiens) (O96017 whole entry, canonical isoform): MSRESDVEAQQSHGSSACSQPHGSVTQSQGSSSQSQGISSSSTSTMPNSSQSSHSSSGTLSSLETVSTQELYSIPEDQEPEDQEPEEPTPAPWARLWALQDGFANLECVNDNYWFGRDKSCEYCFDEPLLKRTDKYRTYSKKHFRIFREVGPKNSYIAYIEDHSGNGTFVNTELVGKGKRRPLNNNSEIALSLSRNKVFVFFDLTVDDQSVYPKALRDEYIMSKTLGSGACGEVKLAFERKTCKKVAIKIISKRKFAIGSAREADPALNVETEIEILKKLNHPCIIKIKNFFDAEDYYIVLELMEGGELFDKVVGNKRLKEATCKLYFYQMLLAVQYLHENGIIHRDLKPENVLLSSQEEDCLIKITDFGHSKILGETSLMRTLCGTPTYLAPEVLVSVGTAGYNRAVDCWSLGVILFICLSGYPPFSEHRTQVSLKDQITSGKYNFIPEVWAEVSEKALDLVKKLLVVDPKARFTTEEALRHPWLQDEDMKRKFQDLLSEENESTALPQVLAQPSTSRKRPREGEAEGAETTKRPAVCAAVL

NS(=O)(=O)c1cc(NC(=O)C2(c3ccccc3Cl)CC2)ccc1Oc1cccc(Cl)c1 [BAY-207]
inactive: residual activity [1] 90% | residual activity [2] 82% | residual activity [3] 78% | residual activity [4] 79% | residual activity [5] 74% | residual activity [6] 97% | residual activity [7] 100% | residual activity [8] 100% | residual activity [9] 90% | residual activity [10] 68% | residual activity [11] 56% | residual activity [12] 83% | residual activity [13] 82% | residual activity [14] 57% | residual activity [15] 100% | residual activity [16] 100% | residual activity [17] 100% | residual activity [18] 100% | residual activity [19] 66% | residual activity [20] 69% | residual activity [21] 93% | residual activity [22] 89% | residual activity [23] 100% | residual activity [24] 73% | residual activity [25] 82% | residual activity [26] 100% | residual activity [27] 81% | residual activity [28] 89% | residual activity [29] 84% | residual activity [30] 100% | residual activity [31] 76% | residual activity [32] 70% | residual activity [33] 100% | residual activity [34] 80% | residual activity [35] 82% | residual activity [36] 91% | residual activity [37] 90% | inhibition [38] 27% | inhibition [39] 21.2%

NS(=O)(=O)c1cc(NC(=O)Cc2ccccc2)ccc1Oc1cccc(Cl)c1 [BAY-1797]
inactive: residual activity [1] 72% | residual activity [2] 61% | residual activity [3] 100% | residual activity [4] 100% | residual activity [5] 94% | residual activity [6] 96% | residual activity [7] 92% | residual activity [8] 81% | residual activity [9] 89% | residual activity [10] 86% | residual activity [11] 92% | residual activity [12] 94% | residual activity [13] 92% | residual activity [14] 98% | residual activity [15] 98% | residual activity [16] 97% | residual activity [17] 100% | residual activity [18] 84% | residual activity [19] 91% | residual activity [20] 74% | residual activity [21] 77% | residual activity [22] 72% | residual activity [23] 100% | residual activity [24] 87% | residual activity [25] 100% | residual activity [26] 86% | residual activity [27] 100% | residual activity [28] 87% | residual activity [29] 92% | residual activity [30] 84% | residual activity [31] 100% | residual activity [32] 96% | residual activity [33] 88% | residual activity [34] 100% | residual activity [35] 79% | residual activity [36] 75% | residual activity [37] 86% | inhibition [38] 28.4% | inhibition [39] 20.3%
